Experimental data taken from PubChem BioAssay (NCI).
Values joined by “and” are separate entries in the source; they are usually repeats but may differ in a detail not shown here. Equal entries are not always repeated.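 Exposure lasted 48 hours, with cells grown in 96-well plates and compounds tested at five concentrations. The concentration for 50% growth inhibition is given as GI50. TGI: total growth inhibition.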

Columns and labels:
Test in all cases: NCI-60 cell line screen, 48 h
[1] = tested on: MALME-3M melanoma
[2] = tested on: OVCAR-5 ovarian
[3] = tested on: HS 578T breast
[4] = tested on: EKVX NSCLC
[5] = tested on: OVCAR-8 ovarian
[6] = tested on: NCI/ADR-RES ovarian
[7] = tested on: DU-145 prostate
[8] = tested on: NCI-H226 lung
[9] = tested on: OVCAR-3 ovarian
[10] = tested on: UO-31 renal

| Compound | GI50 [1] | TGI [1] | GI50 [2] | TGI [2] | GI50 [3] | TGI [3] | GI50 [4] | TGI [4] | GI50 [5] | TGI [5] | GI50 [6] | TGI [6] | GI50 [7] | TGI [7] | GI50 [8] | TGI [8] | GI50 [9] | TGI [9] | GI50 [10] | TGI [10] |
| --- | --- | --- | --- | --- | --- | --- | --- | --- | --- | --- | --- | --- | --- | --- | --- | --- | --- | --- | --- | --- |
| COc1cc2nc(N3CCCC3)nc(NCC3CCCCC3)c2cc1OC | 1.24 µM | 2.55 µM | 1.59 µM | 2.96 µM | 1.79 µM | 3.71 µM | 1.45 µM | 2.91 µM | 1.59 µM | 3.52 µM | 1.51 µM | 3.47 µM | 1.51 µM | 2.92 µM | 1.94 µM | 4.05 µM | 1.55 µM | 2.99 µM | 1.1 µM | 2.38 µM |
| C[C@]12CC[C@H]3[C@@H](CCC4=CC(=O)CC[C@@H]43)[C@@H]1CC[C@@H]2OC(=O)CCc1ccccc1 | 17 µM | 34.4 µM | 42.8 µM | > 81.5 µM | 4 µM | 21.8 µM | 2.23 µM | 28.7 µM | 21.5 µM | 49.3 µM | 19.1 µM | 40.9 µM | 15.6 µM | 32.5 µM | 16.5 µM | 34 µM | 15.8 µM | 30 µM | 18.6 µM | 39.2 µM |
| Cc1ccc(NC(=O)/C=C/c2ccccc2)c(C(N)=O)c1 | 5.99 µM | > 100 µM | 9.68 µM | > 100 µM | 1.69 µM | 6.63 µM | 4.78 µM | > 100 µM | 7.38 µM | > 100 µM | 2.54 µM | 18.2 µM | 3.81 µM | > 41.9 µM | 6.46 µM | > 100 µM | 2.28 µM | 6.68 µM | 10.3 µM | > 60 µM |
| CC1=C(N2CC2)C(=O)c2nc3n(c2C1=O)CCC3OC(=O)CCl (stereo not drawn) | – | 0.103 µM | – | 0.263 µM | – | 0.0784 µM | – | 0.551 µM | – | 0.165 µM | – | 0.0862 µM | – | 0.19 µM | – | 0.17 µM | – | 0.52 µM | – | 0.0944 µM |
| CN(C)c1ccc(/C=C\c2cccc[n+]2C)cc1 | 15.6 µM | > 100 µM | 19.2 µM | > 100 µM | 16.2 µM | > 100 µM | 0.489 µM | > 100 µM | 4.13 µM | > 100 µM | > 100 µM | > 100 µM | 20.6 µM | > 100 µM | 12.2 µM | > 100 µM | 3.3 µM | 30.1 µM | 6.43 µM | > 100 µM |
| C[C@]12CCC3[C@@H](CC[C@@H]4c5nonc5CC[C@]34C)C1CCC(=O)N2 (stereo partly drawn) | – | > 100 µM | – | > 100 µM | > 100 µM | > 100 µM | – | > 100 µM | – | > 100 µM | > 100 µM | > 100 µM | > 100 µM | > 100 µM | – | > 100 µM | – | > 100 µM | – | > 100 µM |
| CC(C)(C)c1n[nH]c(=S)n(/N=C/c2ccc(F)c(Oc3ccccc3)c2)c1=O | 28.5 µM | 91.5 µM | 54.3 µM | > 100 µM | 31.4 µM | 85.8 µM | 41.6 µM | > 100 µM | 25.6 µM | > 100 µM | 35.1 µM | > 100 µM | 67.7 µM | > 100 µM | > 100 µM | > 100 µM | 28.3 µM | 95.7 µM | 33.9 µM | > 100 µM |
| COc1ccc(-c2cc(-c3ccccc3)nc(SCCCC(=O)NO)n2)cc1 | 1 µM | 4.82 µM | 0.979 µM | 6.09 µM | 1.66 µM | 9.27 µM | 1.66 µM | 8.07 µM | 0.389 µM | 19.8 µM | 0.267 µM | 1.6 µM | 1.06 µM | 9.58 µM | 1.68 µM | 6.08 µM | 1.2 µM | 5.17 µM | 0.239 µM | 0.991 µM |
| Cc1ccc(C(=O)Nc2cccc(C(F)(F)F)c2)cc1Nc1nc(-c2cccnc2)nc2c1cnn2C | 0.482 µM and 0.262 µM | 2.77 µM and 1.5 µM | 1.36 µM and 0.845 µM | 15.1 µM and > 10 µM | 1.94 µM and 1.41 µM | 7.14 µM and 4.91 µM | 3.22 µM and 2.59 µM | 21.3 µM and > 10 µM | 3 µM and 2.34 µM | 39.7 µM and > 10 µM | 2.19 µM and 1.54 µM | 6.96 µM and 5.68 µM | 5.5 µM and 3.09 µM | 26.7 µM and > 10 µM | 2.3 µM and 1.63 µM | 7.45 µM and 5.64 µM | 3.86 µM and 2.53 µM | 17.4 µM and 7.27 µM | 1.08 µM and 0.477 µM | 8.99 µM and 5.11 µM |
| O=C1C=C(Br)c2c(-c3ccccc3)oc3cccc1c23 | – | > 100 µM | – | > 100 µM | – | > 100 µM | – | > 100 µM | – | > 100 µM | – | > 100 µM | – | > 100 µM | – | > 100 µM | – | > 100 µM | – | > 100 µM |
| CC(C)CC(CC1=CCC2CC1C2(C)C)C1=C(O)C(C)(C)C(=O)C(C)(C)C1=O (stereo not drawn) | 0.295 µM | 1.13 µM | 0.386 µM | > 100 µM | 0.366 µM | 3.81 µM | 0.33 µM | > 100 µM | 0.379 µM | > 100 µM | 0.306 µM | 0.979 µM | 0.465 µM | > 100 µM | 0.42 µM | 9.46 µM | 0.359 µM | > 100 µM | 0.272 µM | 2.4 µM |
| O=[N+]([O-])c1cccc(-c2nc3sccn3c2-c2ccnc(NCCCNS(=O)(=O)c3cccc(F)c3)n2)c1 | 2.14 µM | 7.06 µM | 7.83 µM | > 100 µM | 4.73 µM | 47.3 µM | 2.77 µM | 52.7 µM | 1.89 µM | 17.7 µM | 1.72 µM | 6.49 µM | 2.6 µM | 12.9 µM | 1.66 µM | 8.22 µM | 2.53 µM | 11.9 µM | 1.25 µM | 9.04 µM |
| COc1ccc(NC(=O)/C(=N\NC(=O)C[n+]2ccccc2)c2c(O)c3ccc(O)cc3oc2=O)c([N+](=O)[O-])c1 | – | > 100 µM | – | > 100 µM | – | > 100 µM | – | > 100 µM | – | > 100 µM | – | > 100 µM | – | > 100 µM | – | > 100 µM | – | > 100 µM | – | > 100 µM |
| COC(=O)C(Cc1ccccc1)NC(=O)NC(=O)NC(=O)CI (stereo not drawn) | 1.55 µM | 3.34 µM | 13 µM | 29.7 µM | 34.3 µM | > 100 µM | 11.9 µM | 25.3 µM | 4.3 µM | 15.9 µM | 19.8 µM | 84.3 µM | 12.1 µM | 25.3 µM | 11.1 µM | 39.3 µM | 2.97 µM | 8.89 µM | 1.83 µM | 3.44 µM |
